# Assay results: patent US9023353B2, “Anti-(+)—methamphetamine monoclonal antibodies” (Board of Trustees University of Arkansas, priority 2013, dated 2015)
# Tested on: ch-Antibody 51
# Assay: ligand cross-reactivity testing: inhibition of [3H]-METH binding to antibody
# Excerpt: Ch-Antibody 51 was designed to maintain the variable framework regions of the heavy and light chains of the mouse antibody including all three CDRs of both the heavy and the light chains, but includes a human IgG2 Fc region. These studies were designed to examine the potential for ch-Antibody 51 to bind to structurally-related stimulants, neurotransmitters, selected medications, and other drugs of abuse (Table 4). The assay used a modified radioimmunoassay (RIA) in a competitive binding format with [^3H]-METH (similar to RIA in Peterson et al., J Pharmacol Exp Ther (2008) 325:124-133) The assay is started by incubating radiolabeled METH ([^3H]-METH) with unlabeled potential ligand (concentrations typically range from 0.03-5000 nM), ch-Antibody 51, and Protein G conjugated to magnetic beads. After reaching equilibrium, the beads with bound antibody and ligand are separated from the solution with a magnet and the supernatant aspirated. The amount of mAb-bound [^3H]-METH is quantified by liquid scintillation counting. For each of the related stimulants, a complete inhibition curve was constructed to determine the KD or KI value (see FIG. 7). For the remaining test ligands, the same method was used, but only 2 concentrations of ligand were tested rather than the expanded range. Additionally, highly concentrated pools of compounds were used to attempt inhibition of [^3H]-METH binding to ch-Antibody 51. If METH binding was inhibited 50% or more by any pool of ligands, the assay was repeated with the compounds separately to identify the individual cross reacting ligands.
# Average disintegrations per minute (DPM) from the scintillation counter were plotted versus the concentration of unlabeled ligand using Origin software (OriginLab). A 4-parameter logistic function was fit to the data to obtain values describing the top and bottom plateaus, slope and mid-point. The mid-point of the curve identifies the concentration of unlabeled ligand required to inhibit 50% of the binding of [^3H]-METH. For homologous assays in which unlabeled METH competes with [^3H]-METH for binding to ch-Antibody 51, the dissociation constant (KD) is found by subtracting the concentration of [^3H]-METH from the mid-point. For non-homologous assays in which unlabeled ligands other than METH compete for binding with [^3H]-METH, the subtraction yields a KI value.
# Each pool was analyzed in triplicate, twice at each concentration.
# Three (3) of the pools inhibited binding of radiolabeled METH by more than 50%, therefore these individual ligands were retested at 1 μM in triplicate in 2 separate assays.
# [1] = individual ligands at 1 μM, triplicate in 2 assays, average
compound,measurement,setting,value
"CNC(C)Cc1ccc2c(c1)OCO2 (single isomer, unassigned; (-)) [(−)-MDMA]",Percent inhibition of [3H]-METH binding,[1],78.3%
same,Ki,inferred from more than 50% inhibition at 1 μM,< 1 µM
CNC[C@H](O)c1cccc(O)c1 [(−)-Phenylephrine],Percent inhibition of [3H]-METH binding,[1],38.2%
NCCc1ccccc1 [2-Phenylethylamine],Percent inhibition of [3H]-METH binding,[1],20.0%
(+)-Pseudoephedrine,Percent inhibition of [3H]-METH binding,[1],5.1%
"CC(N)Cc1ccc2c(c1)OCO2 (single isomer, unassigned; (+)) [(+)-MDA, (+) 3,4-methylenedioxyamphetamine]",Percent inhibition of [3H]-METH binding,[1],40.7%
CN[C@@H](C)[C@H](O)c1ccccc1 (racemic) [(±)-Ephethine],Percent inhibition of [3H]-METH binding,[1],26.1%
(+)-Norpseudoephedrine,Percent inhibition of [3H]-METH binding,[1],36.3%
NCCc1ccc(O)cc1 [Tyramine],Percent inhibition of [3H]-METH binding,"ligand pool, each inhibitor in pool 1 μM",2.1%
same,Percent inhibition of [3H]-METH binding,"ligand pool, each inhibitor in pool 10 μM",7.5%
